# Laboratory results taken from paper PMC8267566, “Human GPR17 missense variants identified in metabolic disease patients have distinct downstream signaling profiles” (The Journal of Biological Chemistry, 2021).
# pEC50, pIC50: −log10 of the molar value.
# What was measured:
# Format in all cases: cell-based
# hGPR17L-R301H-Tango = target: T1, hGPR17L-R301H-Tango (Homo sapiens, UniProt Q13304, R301H); assay: Tango β-arrestin recruitment assay
# T1 construct: Tango fusion module; host or cells: HTLA (HEK293T-derived)
# T1 sequence (Q13304 whole entry R301H, the tested form may be a part): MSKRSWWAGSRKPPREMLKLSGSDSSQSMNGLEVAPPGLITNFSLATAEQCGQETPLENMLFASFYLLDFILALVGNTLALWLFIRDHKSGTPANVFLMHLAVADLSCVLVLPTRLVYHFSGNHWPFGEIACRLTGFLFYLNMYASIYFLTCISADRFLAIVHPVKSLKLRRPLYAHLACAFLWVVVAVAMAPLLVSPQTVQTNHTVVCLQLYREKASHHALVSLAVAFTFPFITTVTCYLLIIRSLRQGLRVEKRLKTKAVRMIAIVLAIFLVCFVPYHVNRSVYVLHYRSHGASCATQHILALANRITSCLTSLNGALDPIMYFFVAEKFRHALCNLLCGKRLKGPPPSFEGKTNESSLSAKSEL
# Description: (§1) HTLA cells were seeded at 10,000 cells/well into white, opaque, poly-D-lysine-coated 96-well plates and transfected with hGPR17L-WT-Tango or hGPR17L-variant-Tango plasmids the following day using lipofectamine 3000 according to the manufacturer's protocol. The next day, cells were incubated at 37 °C and 5% CO2 in serum-free growth media for a 4 h serum starvation. MDL29,951 was then diluted in assay buffer (HBSS, 20 mM HEPES, pH 7.2), added to the cells, and incubated for 16 h at 37 °C and 5% CO2. Drug treatment was decanted and 80 μl/well of Promega Bright-Glo reagent (diluted 20× in assay buffer) (E2610; Promega Corporation) was added and incubated at room temperature for 15 min. Luminescence (1 s per well integration time) was read on a Molecular Devices SpectraMax iD5 plate reader.
# hGPR17L-A131T-Tango = target: T2, hGPR17L-A131T-Tango (Homo sapiens, UniProt Q13304, A131T); assay: Tango β-arrestin recruitment assay
# T2 construct: Tango fusion module; host or cells: HTLA (HEK293T-derived)
# T2 sequence (Q13304 whole entry A131T, the tested form may be a part): as the sequence (Q13304 whole entry R301H, the tested form may be a part) above, with A131T, H301R counted along it
# Description: as §1
# hGPR17L-WT-Tango = target: T3, hGPR17L-WT-Tango (Homo sapiens, UniProt Q13304); assay: Tango β-arrestin recruitment assay
# T3 construct: Tango fusion module; host or cells: HTLA (HEK293T-derived)
# T3 sequence (Q13304 whole entry, the tested form may be a part): as the sequence (Q13304 whole entry R301H, the tested form may be a part) above, with H301R counted along it
# Description: as §1
# hGPR17L-R248Q-Tango = target: T4, hGPR17L-R248Q-Tango (Homo sapiens, UniProt Q13304, R248Q); assay: Tango β-arrestin recruitment assay
# T4 construct: Tango fusion module; host or cells: HTLA (HEK293T-derived)
# T4 sequence (Q13304 whole entry R248Q, the tested form may be a part): as the sequence (Q13304 whole entry R301H, the tested form may be a part) above, with R248Q, H301R counted along it
# Description: as §1
# hGPR17L-D105N-Tango = target: T5, hGPR17L-D105N-Tango (Homo sapiens, UniProt Q13304, D105N); assay: Tango β-arrestin recruitment assay
# T5 construct: Tango fusion module; host or cells: HTLA (HEK293T-derived)
# T5 sequence (Q13304 whole entry D105N, the tested form may be a part): as the sequence (Q13304 whole entry R301H, the tested form may be a part) above, with D105N, H301R counted along it
# Description: as §1
# hGPR17L-G136S-Tango = target: T6, hGPR17L-G136S-Tango (Homo sapiens, UniProt Q13304, G136S); assay: Tango β-arrestin recruitment assay; details: HTLA cells, 30 μM MDL29,951
# T6 construct: Tango fusion module; host or cells: HTLA (HEK293T-derived)
# T6 sequence (Q13304 whole entry G136S, the tested form may be a part): as the sequence (Q13304 whole entry R301H, the tested form may be a part) above, with G136S, H301R counted along it
# Description: as §1
# hGPR17L-G354V-Tango = target: T7, hGPR17L-G354V-Tango (Homo sapiens, UniProt Q13304, G354V); assay: Tango β-arrestin recruitment assay
# T7 construct: Tango fusion module; host or cells: HTLA (HEK293T-derived)
# T7 sequence (Q13304 whole entry G354V, the tested form may be a part): as the sequence (Q13304 whole entry R301H, the tested form may be a part) above, with H301R, G354V counted along it
# Description: as §1
# hGPR17L-V96M-Tango = target: T8, hGPR17L-V96M-Tango (Homo sapiens, UniProt Q13304, V96M); assay: Tango β-arrestin recruitment assay; details: HTLA cells, MDL29,951 0.5 nM to 30 μM
# T8 construct: Tango fusion module; host or cells: HTLA (HEK293T-derived)
# T8 sequence (Q13304 whole entry V96M, the tested form may be a part): as the sequence (Q13304 whole entry R301H, the tested form may be a part) above, with V96M, H301R counted along it
# Description: as §1
# hGPR17L-F43L-Tango = target: T9, hGPR17L-F43L-Tango (Homo sapiens, UniProt Q13304, F43L); assay: Tango β-arrestin recruitment assay
# T9 construct: Tango fusion module; host or cells: HTLA (HEK293T-derived)
# T9 sequence (Q13304 whole entry F43L, the tested form may be a part): as the sequence (Q13304 whole entry R301H, the tested form may be a part) above, with F43L, H301R counted along it
# Description: as §1
# hGPR17L-V103M-Tango = target: T10, hGPR17L-V103M-Tango (Homo sapiens, UniProt Q13304, V103M); assay: Tango β-arrestin recruitment assay
# T10 construct: Tango fusion module; host or cells: HTLA (HEK293T-derived)
# T10 sequence (Q13304 whole entry V103M, the tested form may be a part): as the sequence (Q13304 whole entry R301H, the tested form may be a part) above, with V103M, H301R counted along it
# Description: as §1
# hGPR17L-G136S = target: T11, hGPR17L-G136S (Homo sapiens, UniProt Q13304, G136S); assay: GloSensor cAMP assay, inhibition of forskolin-stimulated cAMP
# T11 construct: expressed in transfected cells; host or cells: HEK293 (ATCC CRL-1573), transient transfection
# T11 sequence (Q13304 whole entry G136S): as the sequence (Q13304 whole entry R301H, the tested form may be a part) above, with G136S, H301R counted along it
# Description: (§2) HEK293 cells were seeded at 20,000 cells/well into white, opaque 96-well plates. The next day, cells were transiently cotransfected with pGloSensor-cAMP-22F and pcDNA3-HA-hGPR17L or pcDNA3-HA-hGPR17L-variants using lipofectamine 3000. Twenty-four hours posttransfection, growth medium and transfection mix were aspirated and replaced with 100 μl/well equilibration medium (2% Promega GloSensor cAMP reagent [E1291; Promega Corporation] in CO2-independent medium) and incubated at room temperature for 2 h. Baseline luminescence was read on a Molecular Devices SpectraMax iD5 plate reader (Molecular Devices) at ambient room temperature for 8 min. Subsequently, 10 μl/well MDL29,951 diluted in assay buffer (HBSS, 20 mM HEPES, pH 7.2) was added and luminescence was read for 10 min. Finally, 10 μl/well forskolin (1099; Tocris Bioscience) diluted in assay buffer was added and luminescence was measured for 20–30 min. The average luminescence value for the 14–20 min time points for each well was normalized to their average baseline luminescence value and expressed as a percentage of the forskolin-stimulated response within each transfection condition.
# hGPR17L-V103M = target: T12, hGPR17L-V103M (Homo sapiens, UniProt Q13304, V103M); assay: as above
# T12 construct: expressed in transfected cells; host or cells: HEK293 (ATCC CRL-1573), transient transfection
# T12 sequence (Q13304 whole entry V103M): as the sequence (Q13304 whole entry R301H, the tested form may be a part) above, with V103M, H301R counted along it
# Description: as §2
# hGPR17L-F43L = target: T13, hGPR17L-F43L (Homo sapiens, UniProt Q13304, F43L); assay: as above
# T13 construct: expressed in transfected cells; host or cells: HEK293 (ATCC CRL-1573), transient transfection
# T13 sequence (Q13304 whole entry F43L): as the sequence (Q13304 whole entry R301H, the tested form may be a part) above, with F43L, H301R counted along it
# Description: as §2
# hGPR17L-R248Q = target: T14, hGPR17L-R248Q (Homo sapiens, UniProt Q13304, R248Q); assay: as above
# T14 construct: expressed in transfected cells; host or cells: HEK293 (ATCC CRL-1573), transient transfection
# T14 sequence (Q13304 whole entry R248Q): as the sequence (Q13304 whole entry R301H, the tested form may be a part) above, with R248Q, H301R counted along it
# Description: as §2
# hGPR17L-G354V = target: T15, hGPR17L-G354V (Homo sapiens, UniProt Q13304, G354V); assay: as above
# T15 construct: expressed in transfected cells; host or cells: HEK293 (ATCC CRL-1573)
# T15 sequence (Q13304 whole entry G354V): as the sequence (Q13304 whole entry R301H, the tested form may be a part) above, with H301R, G354V counted along it
# Description: as §2
# hGPR17L-A131T = target: T16, hGPR17L-A131T (Homo sapiens, UniProt Q13304, A131T); assay: as above
# T16 construct: expressed in transfected cells; host or cells: HEK293 (ATCC CRL-1573), transient transfection
# T16 sequence (Q13304 whole entry A131T): as the sequence (Q13304 whole entry R301H, the tested form may be a part) above, with A131T, H301R counted along it
# Description: as §2
# [1] = read-out: β-arrestin recruitment EC50, HTLA cells
# [2] = HEK293, inhibition of 3 μM forskolin-stimulated cAMP
# [3] = read-out: cAMP IC50, HEK293, inhibition of 3 μM forskolin-stimulated cAMP
compound,measurement,setting,value
"O=C(O)CCc1c(C(=O)O)[nH]c2cc(Cl)cc(Cl)c12 [MDL29,951]",β-arrestin recruitment Efficacy (% of WT span),hGPR17L-R301H-Tango; HTLA cells,69 ± 9.0 % of WT span
same,β-arrestin recruitment pEC50 ± SEM,hGPR17L-R301H-Tango; HTLA cells,6.55 ± 0.04
same,pEC50,hGPR17L-R301H-Tango; [1],6.55
same,β-arrestin recruitment Efficacy (% of WT span),hGPR17L-A131T-Tango; HTLA cells,97 ± 5.2 % of WT span
same,β-arrestin recruitment pEC50 ± SEM,hGPR17L-A131T-Tango; HTLA cells,6.55 ± 0.06
same,pEC50,hGPR17L-A131T-Tango; [1],6.55
same,maximum β-arrestin recruitment response,hGPR17L-WT-Tango; HTLA cells,1.78 ± 0.09 fold over baseline
same,β-arrestin recruitment Efficacy (% of WT span),hGPR17L-WT-Tango; HTLA cells,100 % of WT span
same,β-arrestin recruitment pEC50 ± SEM,hGPR17L-WT-Tango; HTLA cells,7.02 ± 0.02
same,pEC50,hGPR17L-WT-Tango; [1],7.02
same,β-arrestin recruitment Efficacy (% of WT span),hGPR17L-R248Q-Tango; HTLA cells,73 ± 16 % of WT span
same,β-arrestin recruitment pEC50 ± SEM,hGPR17L-R248Q-Tango; HTLA cells,7.55 ± 0.16
same,pEC50,hGPR17L-R248Q-Tango; [1],7.55
same,β-arrestin recruitment Efficacy (% of WT span),hGPR17L-D105N-Tango; HTLA cells,100 ± 5.0 % of WT span
same,β-arrestin recruitment pEC50 ± SEM,hGPR17L-D105N-Tango; HTLA cells,6.53 ± 0.03
same,pEC50,hGPR17L-D105N-Tango; [1],6.54
same,agonist-stimulated β-arrestin recruitment,hGPR17L-G136S-Tango,only a modest response
same,β-arrestin recruitment pEC50 ± SEM,hGPR17L-G354V-Tango; HTLA cells,6.96 ± 0.04
same,pEC50,hGPR17L-G354V-Tango; [1],6.96
same,agonist-stimulated β-arrestin recruitment,hGPR17L-V96M-Tango,no apparent agonist-stimulated β-arrestin recruitment
same,β-arrestin recruitment Efficacy (% of WT span),hGPR17L-F43L-Tango; HTLA cells,61 ± 13 % of WT span
same,β-arrestin recruitment pEC50 ± SEM,hGPR17L-F43L-Tango; HTLA cells,7.08 ± 0.03
same,pEC50,hGPR17L-F43L-Tango; [1],7.08
same,β-arrestin recruitment Efficacy (% of WT span),hGPR17L-V103M-Tango; HTLA cells,84 ± 13 % of WT span
same,β-arrestin recruitment pEC50 ± SEM,hGPR17L-V103M-Tango; HTLA cells,6.69 ± 0.05
same,pEC50,hGPR17L-V103M-Tango; [1],6.68
same,fold less potent for inhibition of forskolin-stimulated cAMP relative to hGPR17L-WT,hGPR17L-G136S,approximately 400 fold
same,cAMP Efficacy (% inhibition),"hGPR17L-G136S; HEK293, 3 μM forskolin",39 ± 2.3 % inhibition
same,cAMP 10 μM MDL +3 μM FSK (% of FSK),"hGPR17L-G136S; HEK293, 10 μM MDL29,951",65 ± 5.0 % of FSK
same,cAMP 100 μM MDL +3 μM FSK (% of FSK),"hGPR17L-G136S; HEK293, 100 μM MDL29,951",60 ± 3.4 % of FSK
same,cAMP pIC50 ± SEM,hGPR17L-G136S; [2],5.89 ± 0.30
same,pIC50,hGPR17L-G136S; [3],5.89
same,cAMP Efficacy (% inhibition),"hGPR17L-V103M; HEK293, 3 μM forskolin",40 ± 1.3 % inhibition
same,cAMP 10 μM MDL +3 μM FSK (% of FSK),"hGPR17L-V103M; HEK293, 10 μM MDL29,951",81 ± 4.0 % of FSK
same,cAMP 100 μM MDL +3 μM FSK (% of FSK),"hGPR17L-V103M; HEK293, 100 μM MDL29,951",101 ± 4.0 % of FSK
same,cAMP pIC50 ± SEM,hGPR17L-V103M; [2],9.24 ± 0.41
same,pIC50,hGPR17L-V103M; [3],9.24
same,cAMP Efficacy (% inhibition),"hGPR17L-F43L; HEK293, 3 μM forskolin",44 ± 2.7 % inhibition
same,cAMP 10 μM MDL +3 μM FSK (% of FSK),"hGPR17L-F43L; HEK293, 10 μM MDL29,951",107 ± 24 % of FSK
same,cAMP 100 μM MDL +3 μM FSK (% of FSK),"hGPR17L-F43L; HEK293, 100 μM MDL29,951",145 ± 30 % of FSK
same,cAMP pIC50 ± SEM,hGPR17L-F43L; [2],8.81 ± 0.37
same,pIC50,hGPR17L-F43L; [3],8.80
same,cAMP Efficacy (% inhibition),"hGPR17L-R248Q; HEK293, 3 μM forskolin",41 ± 3.9 % inhibition
same,cAMP 10 μM MDL +3 μM FSK (% of FSK),"hGPR17L-R248Q; HEK293, 10 μM MDL29,951",84 ± 5.5 % of FSK
same,cAMP 100 μM MDL +3 μM FSK (% of FSK),"hGPR17L-R248Q; HEK293, 100 μM MDL29,951",98 ± 6.7 % of FSK
same,cAMP pIC50 ± SEM,hGPR17L-R248Q; [2],8.73 ± 2.2
same,pIC50,hGPR17L-R248Q; [3],8.72
same,cAMP Efficacy (% inhibition),"hGPR17L-G354V; HEK293, 3 μM forskolin",42 ± 6.7 % inhibition
same,cAMP 10 μM MDL +3 μM FSK (% of FSK),"hGPR17L-G354V; HEK293, 10 μM MDL29,951",91 ± 13 % of FSK
same,cAMP 100 μM MDL +3 μM FSK (% of FSK),"hGPR17L-G354V; HEK293, 100 μM MDL29,951",113 ± 10 % of FSK
same,cAMP pIC50 ± SEM,hGPR17L-G354V; [2],8.34 ± 0.25
same,pIC50,hGPR17L-G354V; [3],8.34
same,cAMP Efficacy (% inhibition),"hGPR17L-A131T; HEK293, 3 μM forskolin",44 ± 4.5 % inhibition
same,cAMP 10 μM MDL +3 μM FSK (% of FSK),"hGPR17L-A131T; HEK293, 10 μM MDL29,951",77 ± 3.5 % of FSK
same,cAMP 100 μM MDL +3 μM FSK (% of FSK),"hGPR17L-A131T; HEK293, 100 μM MDL29,951",109 ± 5.3 % of FSK
same,cAMP pIC50 ± SEM,hGPR17L-A131T; [2],8.31 ± 0.13
same,pIC50,hGPR17L-A131T; [3],8.31
